Source: patent US4194006A, “Therapeutic application of acetyl-d,l-carnitine and other acyl derivatives of d,l-carnitine” (priority 1977, dated 1980)
Like-named read-outs stand apart in the source and are kept apart here.

What was measured:
isolated rat atrium = experiment: antiarrhythmic effect, isolated rat atrium method of M. Libonati and G. Segre; conditions: Rattus norvegicus; for inhibition at 0.1 µg/mL / activation at 0.1 µg/mL: 1·10^-4 g/lt; for inhibition at 0.1 µg/mL / inhibition at 0.01 µg/mL / inhibition at 0.001 µg/mL: decrease; for activation at 0.1 µg/mL / activation at 0.01 µg/mL / activation at 0.001 µg/mL: increase; for inhibition at 0.01 µg/mL / activation at 0.01 µg/mL: 1·10^-5 g/lt; for inhibition at 0.001 µg/mL / activation at 0.001 µg/mL: 1·10^-6 g/lt
isolated rabbit hearts [1] = experiment: coronary vasodilator effect: coronary flow, isolated heart (Langendorff)
Method: (§1) The cardiokinetic effect on isolated heart was also investigated as follows. Rabbit hearts isolated by the Langendorff method were perfused with oxygenized ringer solution at 38.2° C. The isometric contractions, electrocardiogram and coronary flow were recorded using a "Battaglia-Rangoni" polygraph. By removing the oxygen from the perfusion fluid, metabolic damage was induced in the cardia muscle, up to an 80% reduction in the cardiac contractile force.
(§2) Under these conditions of prolonged anoxia the aerobic glycolysis of the myocardium is slowed down, accompanied by the storage of acid catabolites due to both the accumulation of pyruvic acid and its conversion to lactic acid which cannot be utilized because of the depression of pyridine enzymes, such as LDH (lactodehydrogenase). This has repercussions on the anaerobic glycolysis affecting an ever increasing number of enzymes, accompanied by a progressive and increasingly critical exhaustion of the myocardium. Thus a whole series of cardiac muscle fatigue levels occurs which can be observed by the behavior of the examined parameters, namely the contractile force, coronary flow, heart rate and cardiac rhythm. As soon as the contractile force was reduced by 80%, the perfusion fluid was once again oxygenized either without adding other compounds (controls) or with the addition of the compounds under examination.

female rats = experiment: antifatigue effect: rota-rod; type: in vivo, rat; conditions: Rattus norvegicus, ip, 0.25 h, read-out: percentage of animals staying on the rota-rod more than 180 seconds; for responders at 300 mg/kg: 300 mg/kg i.p.; for responders at 400 mg/kg: 400 mg/kg i.p.; for responders at 600 mg/kg: 600 mg/kg i.p.
Method: The antifatigue effect was also examined with the following results. The antifatigue effect was investigated by administering the compounds of the formula (I) according to the present application to female rats intraperitoneally in saline solution and saline solution alone to the controls by the same route. Every 15 minutes (sessions) after treatment, the animals were placed on a 6 cm diameter rod, rotating at 16 r.p.m. The percentage of the animals capable of staying on the rota-rod for a duration of more than 180 seconds was then recorded.

isolated rabbit hearts [2] = experiment: cardiokinetic effect on isolated heart (Langendorff): contractile force after anoxia, positive inotropic effect; conditions: 10 minutes from interruption of anoxic period
Method: as §1, §2
Table 3 below gives the percentage values of the contractile force of the heart, showing a positive inotropic effect, calculated after 10 minutes from the interruption of the anoxic period (myocardial restoration).

[3] = read-out: Mean percent variation versus controls: excitability (-%)
[4] = read-out: Mean percent variation versus controls: frequency max (-%)
[5] = read-out: Mean percent variation versus controls: refractory period (+%)
[6] = read-out: Mean percent variation versus controls: rheobase (+%)
[7] = session 6 (every 15 minutes), * p < 0.05

CCCCCCCC(=O)OC(CC(=O)[O-])C[N+](C)(C)C (racemic) [octanoyl-d,l-carnitine]
inhibition at 0.1 µg/mL (isolated rat atrium; [3]): 47.8%
inhibition at 0.1 µg/mL (isolated rat atrium; [4]): 17.2%
activation at 0.1 µg/mL (isolated rat atrium; [5]): 39.8%
activation at 0.1 µg/mL (isolated rat atrium; [6]): 4.16%
inhibition at 0.01 µg/mL (isolated rat atrium; [3]): 28.6%
inhibition at 0.01 µg/mL (isolated rat atrium; [4]): 36.2%
activation at 0.01 µg/mL (isolated rat atrium; [5]): 16.5%
activation at 0.01 µg/mL (isolated rat atrium; [6]): 0%
inhibition at 0.001 µg/mL (isolated rat atrium; [3]): 12.7%
inhibition at 0.001 µg/mL (isolated rat atrium; [4]): 10.9%
activation at 0.001 µg/mL (isolated rat atrium; [5]): 5.73%
activation at 0.001 µg/mL (isolated rat atrium; [6]): 9.46%
Coronary flow, Mean ± S.E. (isolated rabbit hearts [1]; 1·10^-5 g/lt): 84.71 ± 6.20%
Coronary flow, Mean ± S.E. (isolated rabbit hearts [1]; 1·10^-6 g/lt): 76.24 ± 6.13%
Coronary flow, Mean ± S.E. (isolated rabbit hearts [1]; 5·10^-6 g/lt): 76.00 ± 9.16%
responders at 300 mg/kg (female rats; session 1 (every 15 minutes)): 0%
responders at 300 mg/kg (female rats; session 2 (every 15 minutes)): 0%
responders at 300 mg/kg (female rats; session 3 (every 15 minutes)): 0%
responders at 300 mg/kg (female rats; session 4 (every 15 minutes)): 0%
responders at 300 mg/kg (female rats; session 5 (every 15 minutes)): 10%
responders at 300 mg/kg (female rats; session 6 (every 15 minutes)): 10%
responders at 400 mg/kg (female rats; session 1 (every 15 minutes)): 0%
responders at 400 mg/kg (female rats; session 2 (every 15 minutes)): 0%
responders at 400 mg/kg (female rats; session 3 (every 15 minutes)): 0%
responders at 400 mg/kg (female rats; session 4 (every 15 minutes)): 0%
responders at 400 mg/kg (female rats; session 5 (every 15 minutes)): 10%
responders at 400 mg/kg (female rats; [7]): 10%
responders at 600 mg/kg (female rats; session 1 (every 15 minutes)): 0%
responders at 600 mg/kg (female rats; session 2 (every 15 minutes)): 0%
responders at 600 mg/kg (female rats; session 3 (every 15 minutes)): 10%
responders at 600 mg/kg (female rats; session 4 (every 15 minutes)): 10%
responders at 600 mg/kg (female rats; session 5 (every 15 minutes)): 10%
responders at 600 mg/kg (female rats; [7]): 30%
Contractile force, Mean ± S.E. (isolated rabbit hearts [2]; 1·10^-5 g/lt): 37.8 ± 4.62%
Contractile force, Mean ± S.E. (isolated rabbit hearts [2]; 1·10^-6 g/lt): 25.2 ± 3.60%
Contractile force, Mean ± S.E. (isolated rabbit hearts [2]; 5·10^-6 g/lt): 29.8 ± 4.13%
